According to US20210179561A1, “ACID ADDITION SALTS OF APOMORPHINE, PHARMACEUTICAL COMPOSITIONS CONTAINING THE SAME, AND METHODS OF USING THE SAME” (Sunovion Pharmaceuticals Inc., priority 2018, published 2021):
Counter-ions that a name gives are not always drawn.

How the values were obtained:
physchem = details: water
[1] = Intrinsic dissolution (Wood's apparatus, HPLC) in pH 4.5 acetate buffer or artificial saliva; details: for dissolution rates compared with apomorphine glycolate and apomorphine sulfamate: in words
[2] = Dynamic vapor sorption/desorption (DVS); format: physicochemical; details: for DVS weight change at 5% equilibration: 5% RH equilibration; for DVS weight loss from 95 to 5% RH: desorption 95 to 5% RH; for DVS weight gain from 5 to 95% RH: sorption 5 to 95% RH
Procedure: Dynamic vapor sorption (DVS) data were collected on a VTI SGA-100 Vapor Sorption Analyzer. NaCl and PVP were used as calibration standards. Samples were not dried prior to analysis. Sorption and desorption data were collected over a range from 5% to 95% RH at 10% RH increments under a nitrogen purge. The equilibrium criterion used for analysis was less than 0.0100% weight change in 5 minutes with a maximum equilibration time of 3 hours. Data were not corrected for the initial moisture content of the samples.

[3] = Approximate aqueous solubility of apomorphine salts; details: water
[4] = solution from aqueous solubility test
[5] = Artificial saliva, 37° C., Table 5 (mean of two tests except glycolate)
[6] = pH 4.5 acetate buffer, 37° C., Table 5 (mean of two tests except glycolate)

| Compound | IDR [1, 5] | dissolution rates compared with apomorphine glycolate and apomorphine sulfamate [1] | IDR [1, 6] | DVS weight change at 5% equilibration [2] | DVS weight loss from 95 to 5% RH [2] | DVS weight gain from 5 to 95% RH [2] | Approximate Aqueous Solubility [3] | other results |
| --- | --- | --- | --- | --- | --- | --- | --- | --- |
| CN1CCc2cccc3c2[C@H]1Cc1ccc(O)c(O)c1-3 [Hydrochloride, apomorphine hydrochloride, reference compound] | 0.582 mg/cm^2/min | significantly lower | 2.643 mg/cm^2/min | – | – | – | – | solubility (physchem): ~21 mg/mL |
| CC(C)C(=O)O.CN1CCc2cccc3c2C1Cc1ccc(O)c(O)c1-3 (stereo not shown) [Isobutyrate, apomorphine isobutyrate] | 0.305 mg/cm^2/min | significantly lower | 1.576 mg/cm^2/min | 0.0% | 0.2% | 0.1% | – | – |
| apomorphine glutarate | – | – | – | – | – | – | 3 mg/mL | Approximate pH of Aqueous Solution [4]: 6 |
| apomorphine glycolate | 10.862 mg/cm^2/min | – | 34.775 mg/cm^2/min | 0.0% | 0.5% | 0.5% | – | Dissolution in pH 4.5 Acetate Buffer ([1]; 1 min, single experiment): 14.548 mg/cm^2; Dissolution in Artificial Saliva ([1]; 3 min, single experiment): 42.192 mg/cm^2; Dissolution in pH 4.5 Acetate Buffer ([1]; 3 min, single experiment): 38.801 mg/cm^2; Dissolution in Artificial Saliva ([1]; 3.5 min, single experiment): 47.686 mg/cm^2; Dissolution in pH 4.5 Acetate Buffer ([1]; 3.5 min, single experiment): 51.432 mg/cm^2; Dissolution in Artificial Saliva ([1]; 4 min, single experiment): 53.878 mg/cm^2; Dissolution in pH 4.5 Acetate Buffer ([1]; 4 min, single experiment): 72.492 mg/cm^2; Dissolution in Artificial Saliva ([1]; 4.5 min, single experiment): 58.232 mg/cm^2; Dissolution in pH 4.5 Acetate Buffer ([1]; 4.5 min, single experiment): 89.739 mg/cm^2; IDR ([1]; artificial saliva, single experiment): 10.862 mg/cm^2/min; IDR ([1]; pH 4.5 acetate buffer, single experiment): 34.775 mg/cm^2/min |
| apomorphine methylbenzoate | – | – | – | – | – | – | <1 mg/mL | – |
| apomorphine sulfamate | 16.873 mg/cm^2/min | – | 19.598 mg/cm^2/min | 0.0% | 25.4% | – | – | DVS weight gain from 5 to 85% RH ([2]; sorption 5 to 85% RH): 1.0% |
